In US8758816B2, “Compositions comprising azelastine and methods of use thereof” (priority 2004, dated 2014):
Structures can show the parent of a compound that is named as a salt.

Tested on: patients with seasonal allergic rhinitis (SAR)
Assay: MP 428 two-week randomized double-blind study: Total Nasal Symptom Score (TNSS), change from baseline
Assay type: in vivo, human
Design: key to Change from Baseline in AM TNSS, Mean / Change from Baseline in AM TNSS, LS Mean / Change from Baseline in AM TNSS, Median: TNSS sum of 4 symptoms each 0-3 (0=none, 3=severe); change from baseline
Procedure: A two-week, randomized, double-blind study, which evaluated the effects of the co-administration of ASTELIN® (azelastine hydrochloride (HCl)) and FLONASE® (fluticasone propionate) compared to either product alone in patients with seasonal allergic rhinitis (SAR) was conducted during the 2006 Texas mountain cedar season. After a 5-day placebo lead-in period, 151 patients with moderate-to-severe allergic rhinitis symptoms were randomized to either: (1) (49 total patients) ASTELIN® (azelastine hydrochloride (HCl)) plus placebo saline nasal spray 2 sprays per nostril, 15 minutes apart, twice daily (AM & PM); (2) (50 total patients) FLONASE® (fluticasone propionate) plus placebo saline nasal spray, 2 sprays per nostril, 15 minutes apart, once daily (AM) and two sessions of placebo saline nasal spray, 2 sprays per nostril, 15 minutes apart (PM); or (3) (52 total patients) the co-administration of ASTELIN® (azelastine hydrochloride (HCl)) 2 sprays per nostril plus FLONASE® (fluticasone propionate) 2 sprays per nostril (AM), 15 minutes apart, and ASTELIN® (azelastine hydrochloride (HCl)) 2 sprays per nostril plus placebo saline nasal spray, 15 minutes apart, (PM) for a 2-week double-blind treatment period.
The primary efficacy variable was the change from baseline in the Total Nasal Symptom Score (TNSS), which comprised sneezing, itchy nose, runny nose, and nasal congestion (individual symptoms scores were assigned a value between 0 and 3, where 0=no symptoms and 3=severe symptoms). This study was not statistically designed to assess the differences between ASTELIN® and FLONASE®.

[1] = Day 9, Intent-to-Treat Population
[2] = Day 10, Intent-to-Treat Population
[3] = Day 10, Per-Protocol Population
[4] = Day 11, Intent-to-Treat Population
[5] = Day 11, Per-Protocol Population
[6] = Day 12, Intent-to-Treat Population

For `CN1CCCC(n2nc(Cc3ccc(Cl)cc3)c3ccccc3c2=O)CC1` (racemic) [Azelastine, (±)-1-(2H)-phthalazinone, 4-[(4-chlorophenyl)methyl]-2-(hexahydro-1-methyl-1H-azepin-4-yl)-, mono-hydrochloride], the “Change from Baseline in AM TNSS, Median” value [1] was −2.00, the “Change from Baseline in AM and PM Combined TNSS, Mean” value [1] was −5.38 and the “Change from Baseline in AM and PM Combined TNSS, Median” value [1] was −3.83. For the same compound, the “Change from Baseline in PM TNSS, LS Mean” value [1] was −2.78, the “Change from Baseline in PM TNSS, Mean” value [1] was −2.86 and the “Change from Baseline in PM TNSS, Median” value [1] was −2.33. The “Percent Change from Baseline in AM TNSS, LS Mean” value [1] was −26.38%, the “Percent Change from Baseline in AM TNSS, Mean” value [1] was −26.20% and the “Percent Change from Baseline in AM TNSS, Median” value [1] was −22.22%. For the same compound, the “Percent Change from Baseline in AM and PM Combined TNSS, LS Mean” value [1] was −27.79%, the “Percent Change from Baseline in AM and PM Combined TNSS, Mean” value [1] was −27.72% and the “Percent Change from Baseline in AM and PM Combined TNSS, Median” value [1] was −19.35%. For the same compound, the “Percent Change from Baseline in PM TNSS, LS Mean” value [1] was −28.94%, the “Percent Change from Baseline in PM TNSS, Mean” value [1] was −28.91% and the “Percent Change from Baseline in PM TNSS, Median” value [1] was −25.00%. For the same compound, the “Change from Baseline in AM and PM Combined TNSS, LS Mean” value (Day 9, Intent-to-Treat Population, ANCOVA model) was −5.36, the “Change from Baseline in AM and PM Combined TNSS, LS Mean” value (Day 9, Per-Protocol Population) was −5.32 and the “Change from Baseline in AM and PM Combined TNSS, Mean” value (Day 9, Per-Protocol Population) was −5.38. For the same compound, the “Change from Baseline in AM and PM Combined TNSS, Median” value (Day 9, Per-Protocol Population) was −3.83, the “Percent Change from Baseline in AM and PM Combined TNSS, LS Mean” value (Day 9, Per-Protocol Population) was −27.68% and the “Percent Change from Baseline in AM and PM Combined TNSS, Mean” value (Day 9, Per-Protocol Population) was −27.72%. The “Percent Change from Baseline in AM and PM Combined TNSS, Median” value (Day 9, Per-Protocol Population) was −19.35%, the “Change from Baseline in AM TNSS, LS Mean” value [2] was −2.29 and the “Change from Baseline in AM TNSS, Mean” value [2] was −2.27. The “Change from Baseline in AM TNSS, Median” value [2] was −2.17, the “Change from Baseline in AM and PM Combined TNSS, Mean” value [2] was −5.36 and the “Change from Baseline in AM and PM Combined TNSS, Median” value [2] was −5.33. The “Change from Baseline in PM TNSS, LS Mean” value [2] was −3.01, the “Change from Baseline in PM TNSS, Mean” value [2] was −3.08 and the “Change from Baseline in PM TNSS, Median” value [2] was −3.00. The “Percent Change from Baseline in AM TNSS, LS Mean” value [2] was −23.62%, the “Percent Change from Baseline in AM TNSS, Mean” value [2] was −23.81% and the “Percent Change from Baseline in AM TNSS, Median” value [2] was −23.64%. The “Percent Change from Baseline in AM and PM Combined TNSS, LS Mean” value [2] was −27.60%, the “Percent Change from Baseline in AM and PM Combined TNSS, Mean” value [2] was −27.81% and the “Percent Change from Baseline in AM and PM Combined TNSS, Median” value [2] was −28.93%. The “Percent Change from Baseline in PM TNSS, LS Mean” value [2] was −31.30%, the “Percent Change from Baseline in PM TNSS, Mean” value [2] was −31.29% and the “Percent Change from Baseline in PM TNSS, Median” value [2] was −33.33%. The “Change from Baseline in AM and PM Combined TNSS, LS Mean” value (Day 10, Intent-to-Treat Population, ANCOVA model) was −5.29, the “Change from Baseline in AM and PM Combined TNSS, LS Mean” value [3] was −5.25 and the “Change from Baseline in AM and PM Combined TNSS, Mean” value [3] was −5.36. The “Change from Baseline in AM and PM Combined TNSS, Median” value [3] was −5.33, the “Percent Change from Baseline in AM and PM Combined TNSS, LS Mean” value [3] was −27.49% and the “Percent Change from Baseline in AM and PM Combined TNSS, Mean” value [3] was −27.81%. The “Percent Change from Baseline in AM and PM Combined TNSS, Median” value [3] was −28.93%, the “Change from Baseline in AM TNSS, LS Mean” value [4] was −2.53 and the “Change from Baseline in AM TNSS, Mean” value [4] was −2.48. For the same compound, the “Change from Baseline in AM TNSS, Median” value [4] was −2.00, the “Change from Baseline in AM and PM Combined TNSS, Mean” value [4] was −5.77 and the “Change from Baseline in AM and PM Combined TNSS, Median” value [4] was −4.70. The “Change from Baseline in PM TNSS, LS Mean” value [4] was −3.20, the “Change from Baseline in PM TNSS, Mean” value [4] was −3.29 and the “Change from Baseline in PM TNSS, Median” value [4] was −3.33. The “Percent Change from Baseline in AM TNSS, LS Mean” value [4] was −25.86%, the “Percent Change from Baseline in AM TNSS, Mean” value [4] was −25.65% and the “Percent Change from Baseline in AM TNSS, Median” value [4] was −19.40%. The “Percent Change from Baseline in AM and PM Combined TNSS, LS Mean” value [4] was −29.24%, the “Percent Change from Baseline in AM and PM Combined TNSS, Mean” value [4] was −29.42% and the “Percent Change from Baseline in AM and PM Combined TNSS, Median” value [4] was −26.11%. The “Percent Change from Baseline in PM TNSS, LS Mean” value [4] was −32.80%, the “Percent Change from Baseline in PM TNSS, Mean” value [4] was −32.77% and the “Percent Change from Baseline in PM TNSS, Median” value [4] was −33.96%. The “Change from Baseline in AM and PM Combined TNSS, LS Mean” value (Day 11, Intent-to-Treat Population, ANCOVA model) was −5.70, the “Change from Baseline in AM and PM Combined TNSS, LS Mean” value [5] was −5.64 and the “Change from Baseline in AM and PM Combined TNSS, Mean” value [5] was −5.77. For the same compound, the “Change from Baseline in AM and PM Combined TNSS, Median” value [5] was −4.70, the “Percent Change from Baseline in AM and PM Combined TNSS, LS Mean” value [5] was −29.05% and the “Percent Change from Baseline in AM and PM Combined TNSS, Mean” value [5] was −29.42%. The “Percent Change from Baseline in AM and PM Combined TNSS, Median” value [5] was −26.11%, the “Change from Baseline in AM TNSS, LS Mean” value [6] was −2.60 and the “Change from Baseline in AM TNSS, Mean” value [6] was −2.58. The “Change from Baseline in AM TNSS, Median” value [6] was −2.50, the “Change from Baseline in AM and PM Combined TNSS, Mean” value [6] was −5.54 and the “Change from Baseline in AM and PM Combined TNSS, Median” value [6] was −5.00. The “Change from Baseline in PM TNSS, LS Mean” value [6] was −2.85, the “Change from Baseline in PM TNSS, Mean” value [6] was −2.96 and the “Change from Baseline in PM TNSS, Median” value [6] was −2.40. The “Percent Change from Baseline in AM TNSS, LS Mean” value [6] was −26.61%, the “Percent Change from Baseline in AM TNSS, Mean” value [6] was −26.72% and the “Percent Change from Baseline in AM TNSS, Median” value [6] was −26.32%. The “Percent Change from Baseline in AM and PM Combined TNSS, LS Mean” value [6] was −27.99%, the “Percent Change from Baseline in AM and PM Combined TNSS, Mean” value [6] was −28.25% and the “Percent Change from Baseline in AM and PM Combined TNSS, Median” value [6] was −25.86%. The “Percent Change from Baseline in PM TNSS, LS Mean” value [6] was −29.18% and the “Percent Change from Baseline in PM TNSS, Mean” value [6] was −29.44%.
